biological target: T1, SYK kinase (Homo sapiens, UniProt P43405); test: SYK Assay (OMNIA Kinase Assay, SOX peptide fluorescence); type: biochemical; details: 1 mM ATP, 10 μM Omnia Peptide Substrate Tyr 7, 30° C., readings for 30 minutes; read-out: SYK Activities: IC50
T1 construct: purchased Invitrogen, Carlsbad
Method: In the assay OMNIA® KINASE ASSAY by Invitrogen Corporation (Carlsbad) the effect of invention of a compound on the phosphorylation is determined by measurement of fluorescence intensity of a chelation-enhanced fluorophore called SOX. Upon phosphorylation of the peptide by the kinase of interest, Mg2+ is chelated to form a bridge between the SOX moiety and the phosphate group that is transferred to the specific tyrosine on the peptide. The fluorescence intensity is directly proportional to the amount of peptide phosphorylation.
To the wells of an 384 well small volume plate (Greiner, Frickenhausen) are added (i) the compound under test in 5% DMSO/distilled water (2 μl), (ii) 16 μl of the master mix containing ATP, DTT, Kinase Reaction Buffer, Omina Peptide Substrate Tyr 7 resulting in a final concentration of 1 mM ATP, 0.2 mM DTT and 10 μM Peptide Substrate.
The Master Mix and the assay plate was incubated to reaction temperature before the measurement (30° C.). The reaction was started with addition of (iii) 2 μl 4 μg/ml SYK kinase (Invitrogen, Carlsbad). During measurement fluorescence intensity readings were collected using a TECAN M1000 at a wavelength of λex 360/λem 485 nm every 30 s for 30 minutes. The reaction velocity was plotted versus the inhibitor concentration to determine the IC50 using XLFit 5.0 (IDBS, Guildford) to fit to a sigmoidal dose response curve.

| IC50 [µM] | Structure (SMILES) |
| --- | --- |
| 0.1 to 1 | CN1CCN(C2CCN(c3ccc(Nc4nc5cccc(F)c5c5cn[nH]c45)cc3)CC2)CC1 [Example 1, 9-fluoro-N-(4-(4-(4-methylpiperazin-1-yl)piperidin-1-yl)phenyl)-3H-pyrazolo[3,4-c]quinolin-4-amine] |
| 0.1 to 1 | O=C1CCc2ccc(Nc3nc4c(F)cccc4c4cn[nH]c34)cc2N1 [Example 54, 7-((6-fluoro-3H-pyrazolo[3,4-c]quinolin-4-yl)amino)-3,4-dihydroquinolin-2(1H)-one] |
| 0.1 to 1 | COc1cccc2nc(Nc3cnn(C4CCOCC4)c3)c3[nH]ncc3c12 [Example 102, 9-methoxy-N-(1-(tetrahydro-2H-pyran-4-yl)-1H-pyrazol-4-yl)-3H-pyrazolo[3,4-c]quinolin-4-amine] |
| < 0.01 | CN1CCC(n2cc(Nc3nc4ccc(S(C)(=O)=O)cc4c4cn[nH]c34)cn2)CC1 [Example 114, N-(1-(1-methylpiperidin-4-yl)-1H-pyrazol-4-yl)-8-(methylsulfonyl)-3H-pyrazolo[3,4-c]quinolin-4-amine] |
| < 0.01 | CC(=O)N1CCC(n2cc(Nc3nc4ccc(S(C)(=O)=O)cc4c4cn[nH]c34)cn2)CC1 [Example 115, 1-(4-(4-((8-(methylsulfonyl)-3H-pyrazolo[3,4-c]quinolin-4-yl)amino)-1H-pyrazol-1-yl)piperidin-1-yl)ethan-1-one] |
| 0.1 to 1 | COCCn1cc(Nc2nc3cccc(OC)c3c3c[nH]nc23)cn1 [Example 116, 9-methoxy-N-(1-(2-methoxyethyl)-1H-pyrazol-4-yl)-2H-pyrazolo[3,4-c]quinolin-4-amine] |
| 0.1 to 1 | COc1cccc2nc(Nc3cnn(C4CCN(C(C)=O)CC4)c3)c3[nH]ncc3c12 [Example 117, 1-(4-(4-((9-methoxy-3H-pyrazolo[3,4-c]quinolin-4-yl)amino)-1H-pyrazol-1-yl)piperidin-1-yl)ethan-1-one] |
| 0.01 to 0.1 | COc1ccc2nc(Nc3cnn(C4CCN(C)CC4)c3)c3n[nH]cc3c2c1 [Example 151, 8-methoxy-N-(1-(1-methylpiperidin-4-yl)-1H-pyrazol-4-yl)-2H-pyrazolo[3,4-c]quinolin-4-amine] |
| 0.01 to 0.1 | COc1ccc2nc(Nc3cnn(C4CCN(C(C)=O)CC4)c3)c3n[nH]cc3c2c1 [Example 152, 1-(4-(4-((8-methoxy-2H-pyrazolo[3,4-c]quinolin-4-yl)amino)-1H-pyrazol-1-yl)piperidin-1-yl)ethan-1-one] |
| 0.01 to 0.1 | COCCn1cc(Nc2nc3ccc(S(C)(=O)=O)cc3c3cn[nH]c23)cn1 [Example 153, N-(1-(2-methoxyethyl)-H-pyrazol-4-yl)-8-(methylsulfonyl)-3H-pyrazolo[3,4-c]quinolin-4-amine] |
| 0.1 to 1 | Cc1c(Nc2nc3ccc(S(C)(=O)=O)cc3c3cn[nH]c23)cnn1C(C)C [Example 218, N-(1-isopropyl-5-methyl-1H-pyrazol-4-yl)-8-(methylsulfonyl)-3H-pyrazolo[3,4-c]quinolin-4-amine] |
| 0.1 to 1 | COCCn1cc(Nc2nc3ccc(S(C)(=O)=O)cc3c3cn[nH]c23)c(C#N)n1 [Example 248, 1-(2-methoxyethyl)-4-((8-(methylsulfonyl)-3H-pyrazolo[3,4-c]quinolin-4-yl)amino)-1H-pyrazole-3-carbonitrile] |
| 0.1 to 1 | COc1ccc2nc(Nc3cnn(CCF)c3)c3[nH]ncc3c2c1 [Example 291, N-(1-(2-fluoroethyl)-1H-pyrazol-4-yl)-8-methoxy-3H-pyrazolo[3,4-c]quinolin-4-amine] |
| 0.1 to 1 | COc1cc(OC)c2nc(Nc3cnn(C(C)C)c3)c3[nH]ncc3c2c1 [Example 294, N-(1-isopropyl-1H-pyrazol-4-yl)-6,8-dimethoxy-3H-pyrazolo[3,4-c]quinolin-4-amine] |
| 0.01 to 0.1 | COc1cc(OC)c2nc(Nc3cnn(C4CCN(C(C)(C)C)CC4)c3)c3[nH]ncc3c2c1 [Example 295, N-(1-(1-(tert-butyl)piperidin-4-yl)-1H-pyrazol-4-yl)-6,8-dimethoxy-3H-pyrazolo[3,4-c]quinolin-4-amine] |
| 0.1 to 1 | CS(=O)(=O)c1ccc2nc(Nc3cnn(-c4ccccn4)c3)c3n[nH]cc3c2c1 [Example 341, 8-(methylsulfonyl)-N-(1-(pyridin-2-yl)-1H-pyrazol-4-yl)-2H-pyrazolo[3,4-c]quinolin-4-amine] |
| 0.01 to 0.1 | CS(=O)(=O)c1ccc2nc(Nc3ccc(N4CCOCC4)c(C#N)c3)c3n[nH]cc3c2c1 [Example 354, 5-((8-(methylsulfonyl)-2H-pyrazolo[3,4-c]quinolin-4-yl)amino)-2-morpholinobenzonitrile] |
| 0.01 to 0.1 | Brc1cccc2c1nc(Nc1cnn(C3CCOCC3)c1)c1[nH]ncc12 [Example 355, 6-bromo-N-(1-(tetrahydro-2H-pyran-4-yl)-1H-pyrazol-4-yl)-3H-pyrazolo[3,4-c]quinolin-4-amine] |

biological target: LRRK2 (Homo sapiens, UniProt Q5S007); test: LRRK2-LRRK2 G2019S-Assay (LanthaScreen Eu Kinase Binding Assay); details: 5 nM LRRK2, 10 nM tracer 236, 2 nM EU-Anti-GST antibody, 1 h at RT; read-out: LRRK2 Activities: IC50
Sequence (Q5S007 970-2527 limits assumed): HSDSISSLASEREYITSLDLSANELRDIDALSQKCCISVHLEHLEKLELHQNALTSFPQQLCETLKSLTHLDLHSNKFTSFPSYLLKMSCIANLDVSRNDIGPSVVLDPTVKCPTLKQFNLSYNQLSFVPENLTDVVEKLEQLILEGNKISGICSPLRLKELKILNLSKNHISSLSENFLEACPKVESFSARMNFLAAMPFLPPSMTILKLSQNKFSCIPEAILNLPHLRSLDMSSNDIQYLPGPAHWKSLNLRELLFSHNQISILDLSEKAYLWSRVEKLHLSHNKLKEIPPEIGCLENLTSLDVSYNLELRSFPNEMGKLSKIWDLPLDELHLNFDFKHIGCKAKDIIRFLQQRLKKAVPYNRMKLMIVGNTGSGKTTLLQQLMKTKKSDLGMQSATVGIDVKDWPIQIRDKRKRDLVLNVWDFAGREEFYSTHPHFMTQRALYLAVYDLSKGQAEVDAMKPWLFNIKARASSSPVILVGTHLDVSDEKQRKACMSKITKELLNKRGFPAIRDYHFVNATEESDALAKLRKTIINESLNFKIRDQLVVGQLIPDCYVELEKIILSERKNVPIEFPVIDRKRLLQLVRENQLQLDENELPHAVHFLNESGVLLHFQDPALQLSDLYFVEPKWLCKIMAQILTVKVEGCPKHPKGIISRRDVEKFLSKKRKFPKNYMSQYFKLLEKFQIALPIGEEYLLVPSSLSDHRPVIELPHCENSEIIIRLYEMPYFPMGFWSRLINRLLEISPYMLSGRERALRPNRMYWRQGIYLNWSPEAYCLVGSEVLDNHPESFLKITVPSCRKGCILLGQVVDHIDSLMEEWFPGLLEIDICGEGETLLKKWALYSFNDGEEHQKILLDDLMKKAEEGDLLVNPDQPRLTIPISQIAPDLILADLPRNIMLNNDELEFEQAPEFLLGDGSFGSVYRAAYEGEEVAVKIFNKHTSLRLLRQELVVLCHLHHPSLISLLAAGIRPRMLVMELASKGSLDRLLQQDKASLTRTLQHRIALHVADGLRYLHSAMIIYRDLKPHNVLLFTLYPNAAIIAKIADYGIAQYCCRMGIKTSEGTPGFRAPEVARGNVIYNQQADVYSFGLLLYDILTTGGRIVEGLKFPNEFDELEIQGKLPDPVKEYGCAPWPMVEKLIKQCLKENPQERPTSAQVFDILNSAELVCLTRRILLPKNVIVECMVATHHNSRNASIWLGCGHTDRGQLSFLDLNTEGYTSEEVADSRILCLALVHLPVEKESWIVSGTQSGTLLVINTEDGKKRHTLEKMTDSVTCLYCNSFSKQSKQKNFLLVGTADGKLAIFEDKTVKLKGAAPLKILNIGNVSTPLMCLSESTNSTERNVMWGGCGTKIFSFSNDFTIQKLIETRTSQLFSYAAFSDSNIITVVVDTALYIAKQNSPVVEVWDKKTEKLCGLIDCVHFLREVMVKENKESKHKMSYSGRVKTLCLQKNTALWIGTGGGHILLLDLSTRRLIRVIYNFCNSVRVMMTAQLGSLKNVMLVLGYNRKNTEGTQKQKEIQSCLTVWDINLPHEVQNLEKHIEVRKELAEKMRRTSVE
Procedure, shortened: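 In a TR-FRET tracer displacement assay, LRRK2 or its mutants at 5 nM were mixed with 2 nM Eu-anti-GST antibody and 10 nM tracer 236 in kinase buffer A for 1 h at RT. The 665/615 nm emission ratio was plotted against inhibitor concentration, and IC50 came from a variable-slope sigmoidal fit.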

| IC50 [µM] | Structure (SMILES) |
| --- | --- |
| 0.01 to 0.1 | CN1CCN(C2CCN(c3ccc(Nc4nc5cccc(F)c5c5cn[nH]c45)cc3)CC2)CC1 [Example 1, 9-fluoro-N-(4-(4-(4-methylpiperazin-1-yl)piperidin-1-yl)phenyl)-3H-pyrazolo[3,4-c]quinolin-4-amine] |
| 0.1 to 1 | Cc1nn(CC(C)(C)O)cc1Nc1nc2ccc(S(C)(=O)=O)cc2c2c[nH]nc12 [Example 325, 2-methyl-1-(3-methyl-4-((8-(methylsulfonyl)-2H-pyrazolo[3,4-c]quinolin-4-yl)amino)-1H-pyrazol-1-yl)propan-2-ol] |
| 0.1 to 1 | Cc1c(Nc2nc3ccc(S(C)(=O)=O)cc3c3c[nH]nc23)cnn1CC(C)(C)O [Example 326, 2-methyl-1-(5-methyl-4-((8-(methylsulfonyl)-2H-pyrazolo[3,4-c]quinolin-4-yl)amino)-1H-pyrazol-1-yl)propan-2-ol] |
| 0.1 to 1 | CS(=O)(=O)c1ccc2nc(Nc3cc(C(=O)O)n[nH]3)c3n[nH]cc3c2c1 [Example 335, 5-((8-(methylsulfonyl)-2H-pyrazolo[3,4-c]quinolin-4-yl)amino)-1H-pyrazole-3-carboxylic acid] |
| 0.1 to 1 | CS(=O)(=O)c1ccc2nc(Nc3ccccc3O)c3n[nH]cc3c2c1 [Example 336, 2-((8-(methylsulfonyl)-2H-pyrazolo[3,4-c]quinolin-4-yl)amino)phenol] |
| 0.1 to 1 | C[C@H]1CCCN1c1cccc(Nc2nc3ccc(S(C)(=O)=O)cc3c3c[nH]nc23)c1 [Example 337, (S)—N-(3-(2-methylpyrrolidin-1-yl)phenyl)-8-(methylsulfonyl)-2H-pyrazolo[3,4-c]quinolin-4-amine] |
| 0.01 to 0.1 | CCN1C(=O)COc2ccc(Nc3nc4ccc(S(C)(=O)=O)cc4c4c[nH]nc34)cc21 [Example 342, 4-ethyl-6-((8-(methylsulfonyl)-2H-pyrazolo[3,4-c]quinolin-4-yl)amino)-2H-benzo[b][1,4]oxazin-3(4H)-one] |
| 0.01 to 0.1 | CS(=O)(=O)c1ccc2nc(Nc3ccc4c(c3)NC(=O)CO4)c3n[nH]cc3c2c1 [Example 343, 6-((8-(methylsulfonyl)-2H-pyrazolo[3,4-c]quinolin-4-yl)amino)-2H-benzo[b][1,4]oxazin-3(4H)-one] |
| 0.1 to 1 | COc1ccc2nc(Nc3cnn(C(C)C(=O)O)c3)c3n[nH]cc3c2c1 (stereo not shown) [Example 347, 2-(4-((8-methoxy-2H-pyrazolo[3,4-c]quinolin-4-yl)amino)-1H-pyrazol-1-yl)propanoic acid] |
| 0.1 to 1 | CS(=O)(=O)c1ccc2nc(Nc3ccc4c(c3)N(C(=O)C3CC3)CCC4)c3n[nH]cc3c2c1 [Example 350, cyclopropyl(7-((8-(methylsulfonyl)-2H-pyrazolo[3,4-c]quinolin-4-yl)amino)-3,4-dihydroquinolin-1(2H)-yl)methanone] |

Reference: patent publication US10752624B2, “Kinase inhibitors” (Origenis GmbH, priority 2012, dated 2020)
